12 compounds from patent publication EP2092824A1, “Heterocyclyl pyrimidines” (Bayer CropScience AG, priority 2008, dated 2009) can be followed below.

Data set [1] in a line: logP determination by HPLC on reversed-phase column (EEC-Directive 79/831 Annex V.A8). As to conditions: c18 hplc, C 18 reversed phase, 43°C, LC-MS at pH 2,7 (0,1 % aqueous formic acid / acetonitrile). The class given is physicochemical. How it is done:
Die Bestimmung der in den Herstellungsbeispielen angegebenen logP-Werte erfolgte gemäß EEC-Directive 79/831 Annex V.A8 durch HPLC (High Performance Liquid Chromatography) an einer Phasenumkehrsäule (C 18). Temperatur: 43°C.
Die Bestimmung erfolgte mit der LC-MS bei pH 2,7 mit 0,1 % wässriger Ameisensäure und Acetonitril (enthält 0,1 % Ameisensäure) als Eluenten; linearer Gradient von 10 % Acetonitril bis 95 % Acetonitril.
Die Eichung erfolgte mit unverzweigten Alkan-2-onen (mit 3 bis 16 Kohlenstoffatomen), deren logP-Werte bekannt sind (Bestimmung der logP-Werte anhand der Retentionszeiten durch lineare Interpolation zwischen zwei aufeinanderfolgenden Alkanonen).

The subject of another data set is Myzus persicae. Briefly: Myzus test (MYZUPE spray treatment). It counts as in vivo. The note with it: foliar, Aufwandmenge 500 g/ha, sprayed Chinese cabbage leaf discs (Brassica pekinensis) infested with all stages, 100 % = all aphids killed, read-out: Wirkung. The source says:
Myzus-Test (MYZUPE Spritzbehandlung)
(§1) Zur Herstellung einer zweckmäßigen Wirkstoffzubereitung vermischt man 1 Gewichtsteil Wirkstoff mit den angegebenen Mengen Lösungsmittel und Emulgator und verdünnt das Konzentrat mit emulgatorhaltigem Wasser auf die gewünschte Konzentration.
Chinakohlblattscheiben (Brassica pekinensis), die von allen Stadien der Grünen Pfirsichblattlaus (Myzus persicae) befallen sind, werden mit einer Wirkstoffzubereitung der gewünschten Konzentration gespritzt.
Nach der gewünschten Zeit wird die Wirkung in % bestimmt. Dabei bedeutet 100 %, dass alle Blattläuse abgetötet wurden; 0 % bedeutet, dass keine Blattläuse abgetötet wurden.

A further data set deals with Phaedon cochleariae. In words: Phaedon test (PHAECO spray treatment). The class given is in vivo. The note with it: foliar, Aufwandmenge 500 g/ha, sprayed Chinese cabbage leaf discs, larvae, 100 % = all beetle larvae killed, read-out: Wirkung.
From the text: Phaedon-Test (PHAECO Spritzbehandlung)
as §1
Chinakohlblattscheiben (Brassica pekinensis) werden mit einer Wirkstoffzubereitung der gewünschten Konzentration gespritzt und nach dem Abtrocknen mit Larven des Meerrettichblattkäfers (Phaedon cochleariae) besetzt.
Nach der gewünschten Zeit wird die Wirkung in % bestimmt. Dabei bedeutet 100 %, dass alle Käferlarven abgetötet wurden; 0 % bedeutet, dass keine Käferlarven abgetötet wurden.

In the next data set the test system is Sphaerotheca fuliginea. In words: Sphaerotheca test (cucumber) / protective. The class given is in vivo. The note with it: Konzentration an Wirkstoff 500ppm, cucumber plants, evaluation 7 days after inoculation, 100 % = no infestation. The source says: Sphaerotheca-Test (Gurke) / protektiv
(§2) Zur Herstellung einer zweckmäßigen Wirkstoffzubereitung vermischt man 1 Gewichtsteil Wirkstoff mit den angegebenen Mengen Lösungsmittel und Emulgator und verdünnt das Konzentrat mit Wasser auf die gewünschte Konzentration.
Zur Prüfung auf protektive Wirksamkeit bespritzt man junge Gurkenpflanzen mit der Wirkstoffzubereitung in der angegebenen Aufwandmenge. 1 Tag nach der Behandlung werden die Pflanzen mit einer Sporensuspension von Sphaerotheca fuliginea inokuliert. Anschließend werden die Pflanzen in einem Gewächshaus bei 70 % relativer Luftfeuchtigkeit und einer Temperatur von 23 °C aufgestellt.
7 Tage nach der Inokulation erfolgt die Auswertung. Dabei bedeutet 0 % ein Wirkungsgrad, der demjenigen der Kontrolle entspricht, während ein Wirkungsgrad von 100 % bedeutet, daß kein Befall beobachtet wird.

A further data set relates to Puccinia recondita. In words: Puccinia test (wheat) / protective. The class given is in vivo. As to conditions: Konzentration an Wirkstoff 500ppm, wheat plants, evaluation 7-9 days after inoculation, 100 % = no infestation.
From the text: Puccinia-Test (Weizen) / protektiv
as §2
Zur Prüfung auf protektive Wirksamkeit bespritzt man junge Weizenpflanzen mit der Wirkstoffzubereitung in der angegebenen Aufwandmenge. 1 Tag nach der Behandlung werden die Pflanzen mit einer Sporensuspension von Puccinia recondita inokuliert und stehen dann 48h bei 100% rel. Feuchte und 22°C. Anschließend stehen die Pflanzen bei 80% rel. Luftfeuchtigkeit und einer Temperatur von 20 °C.
7-9 Tage nach der Inokulation erfolgt die Auswertung. Dabei bedeutet 0 % ein Wirkungsgrad, der demjenigen der Kontrolle entspricht, während ein Wirkungsgrad von 100 % bedeutet, dass kein Befall beobachtet wird.

For another data set, the system named is Meloidogyne incognita. Briefly: Meloidogyne test (MELGIN spray treatment). It counts as in vivo. The note with it: Aufwandmenge 4 ppm; nematicidal effect by gall formation on lettuce roots; 100 % = no galls. The source says: Meloidogyne-Test (MELGIN Spritzbehandlung)
Zur Herstellung einer zweckmäßigen Wirkstoffzubereitung vermischt man 1 Gewichtsteil Wirkstoff mit der angegebenen Menge Lösungsmittel und verdünnt das Konzentrat mit Wasser auf die gewünschte Konzentration.
Gefäße werden mit Sand, Wirkstofflösung, Meloidogyne incognita-Ei-Larven-Suspension und Salatsamen gefüllt. Die Salatsamen keimen und die Pflänzchen entwickeln sich. An den Wurzeln entwickeln sich die Gallen.
Nach der gewünschten Zeit wird die nematizide Wirkung an Hand der Gallenbildung in % bestimmt. Dabei bedeutet 100 %, dass keine Gallen gefunden wurden; 0 % bedeutet, dass die Zahl der Gallen an den behandelten Pflanzen der der unbehandelten Kontrolle entspricht.

Regarding `CSc1nc(Cl)c(-c2ccccc2Cl)c(Cl)n1` [4,6-Dichlor-5-(2-chlorphenyl)-2-(methylthio)pyrimidin], the chromatographic logP (usually a lipophilicity value derived from retention on a column) in data set [1] came to 4.52.
In turn, `CC(C)Nc1nc([S+](C)[O-])nc(Cl)c1-c1ccccc1Cl` (centres unmarked) [4-Chlor-5-(2-chlorphenyl)-6-(isopropylamino)-2-(methylsulfinyl)-pyrimidin] came in with a chromatographic logP in data set [1] of 2.55.
Consider `CSc1nc(Cl)c(-c2ccccc2Cl)c(NC(C)C)n1` [4-Chlor-5-(2-chlorphenyl)-6-(isopropylamino)-2-(methylthio)-pyrimidin], for which, in data set [1], the chromatographic logP stood at 4.52.
For the compound `CC(C)Nc1nc(-n2ccc(C(=O)NS(C)(=O)=O)n2)nc(Cl)c1-c1ccccc1Cl` [I-2, 1-[4-Chlor-5-(2-chlorphenyl)-6-(isopropylamino)pyrimidin-2-yl]-N-(methylsulfonyl)-1H-pyrazol-3-carboxamid], the mortality at 500 g/ha in the data set with Myzus persicae and in the data set on Phaedon cochleariae was not below 80% in each case. Moreover, the Wirkungsgrad in the data set on Sphaerotheca fuliginea and in the data set with Puccinia recondita was not below 70% in each case.
Regarding `Cc1cc(C(=O)NS(C)(=O)=O)nn1-c1nc(Cl)c(-c2ccccc2Cl)c(NC(C)C)n1` [I-3, 1-[4-Chlor-5-(2-chlorphenyl)-6-(isopropylamino)pyrimidin-2-yl]-5-methyl-N-(methylsulfonyl)-1H-pyrazol-3-carboxamid], the mortality at 500 g/ha in the data set on Myzus persicae and in the data set on Phaedon cochleariae was not below 80% each time. This compound also registered a Wirkung with Meloidogyne incognita not below 80%. Also, the Wirkungsgrad with Sphaerotheca fuliginea and with Puccinia recondita was not below 70% throughout.
Take `Cc1cc(C(=O)NS(C)(=O)=O)nn1-c1nc(Cl)c(-c2ccccc2)c(NC(C)C)n1` [I-4]: in the data set with Phaedon cochleariae, the mortality at 500 g/ha was not below 80%.
For the compound `Cc1cc(C(=O)NS(C)(=O)=O)nn1-c1nc(Cl)c(-c2c(F)cc(F)cc2F)c(NC(C)C)n1` [I-6], the mortality at 500 g/ha in the data set on Myzus persicae and in the data set on Phaedon cochleariae was not below 80% each time.
For `CC(C)Nc1nc(S(C)(=O)=O)nc(Cl)c1-c1ccccc1Cl` [II-1, 4-Chlor-5-(2-chlorphenyl)-6-isopropylamino-2-methylsulfonyl-pyrimidin], the chromatographic logP in data set [1] was found to be 2.96.
As for `CC(C)Nc1nc(-n2ccc(C(=O)O)n2)nc(Cl)c1-c1ccccc1Cl` [X-1, 1-[4-Chlor-5-(2-chlorphenyl)-6-(isopropylamino)pyrimidin-2-yl]-1H-pyrazol-3-carbonsäure], the mortality at 500 g/ha with Myzus persicae and in the data set on Phaedon cochleariae was not below 80% throughout.
For `Cc1cc(C(=O)O)nn1-c1nc(Cl)c(-c2ccccc2Cl)c(NC(C)C)n1` [X-2, 1-[4-Chlor-5-(2-chlorphenyl)-6-(isopropylamino)pyrimidin-2-yl]-5-methyl-1H-pyrazol-3-carbonsäure], the mortality at 500 g/ha with Myzus persicae and in the data set on Phaedon cochleariae was not below 80% in each case.
Consider `Cc1cc(C(=O)O)nn1-c1nc(Cl)c(-c2ccccc2)c(NC(C)C)n1` [X-3], for which the mortality at 500 g/ha in the data set with Phaedon cochleariae is not below 80%.
For the compound `Cc1cc(C(=O)O)nn1-c1nc(Cl)c(-c2c(F)cc(F)cc2F)c(NC(C)C)n1` [X-5], the mortality at 500 g/ha in the data set on Myzus persicae and in the data set on Phaedon cochleariae was not below 80% each time.
